In one assay the target is T1, MycC (Homo sapiens, UniProt P01106).
T1 construct: endogenous in cells; host or cells: L363
As to the kind of experiment: Degradation of MycC protein in L363 cells, JESS/Western blot of lysates. It counts as cell-based. As to conditions: L-363, 24 h, L-363 cells, 24 h; for Dmax at 0.5 µM: read-out: % Degradation of MycC (L-363) 24 h, 0.5 μM; for Dmax at 1 µM: read-out: % Degradation of MycC (L-363) 24 h, 1 μM; for Dmax at 3 µM: read-out: % Degradation of MycC (L-363) 24 h, 3 μM; for Dmax at 6 µM: read-out: % Degradation of MycC (L-363) 24 h, 6 μM. The essentials:
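L363 suspension cells were seeded at 1E6 cells per well and exposed to compound (stock 10 mM in DMSO) for 24 hrs. Cells were collected, spun down, rinsed with PBS, lysed in RIPA buffer cocktail on ice, clarified and kept at −80 degrees. Lysate protein was quantified by BCA, and c-myc was measured on JESS by chemiluminescence with tubulin and GAPDH loading controls in the NIR channel.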
A general note: In western blotting, separated proteins are transferred to a membrane and probed.

The target in a further assay is T2, MycN (Homo sapiens, UniProt P04198).
T2 construct: endogenous in cells; host or cells: SK-N-BE(2)
T2 sequence (P04198 1-464): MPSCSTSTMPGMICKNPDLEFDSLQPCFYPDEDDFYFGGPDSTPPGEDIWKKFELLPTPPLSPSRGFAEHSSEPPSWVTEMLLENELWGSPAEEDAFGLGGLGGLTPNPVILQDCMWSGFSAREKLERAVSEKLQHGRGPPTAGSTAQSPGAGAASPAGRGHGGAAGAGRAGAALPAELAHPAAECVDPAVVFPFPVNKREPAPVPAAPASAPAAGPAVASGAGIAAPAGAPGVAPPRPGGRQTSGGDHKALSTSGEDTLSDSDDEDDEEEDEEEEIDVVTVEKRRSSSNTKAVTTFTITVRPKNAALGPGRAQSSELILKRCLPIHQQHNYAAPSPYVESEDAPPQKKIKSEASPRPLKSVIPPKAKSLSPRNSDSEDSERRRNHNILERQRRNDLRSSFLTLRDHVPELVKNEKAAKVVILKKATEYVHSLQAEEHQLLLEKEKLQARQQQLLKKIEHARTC
As to the kind of experiment: Degradation of MycN protein in SK-N-BE(2) cells, JESS/Western blot of lysates. It counts as cell-based. As to conditions: SKNBE2, 24 h, SKNBE2 cells, 24 h; for Dmax at 0.5 µM: read-out: % Degradation of MycN (SKNBE2) 24 h, 0.5 μM; for Dmax at 1 µM: read-out: % Degradation of MycN (SKNBE2) 24 h, 1 μM; for Dmax at 3 µM: read-out: % Degradation of MycN (SKNBE2) 24 h, 3 μM; for Dmax at 6 µM: read-out: % Degradation of MycN (SKNBE2) 24 h, 6 μM. Put shortly:
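SK-N-BE(2) adherent cells (5E5 per well of a 6 well dish) were grown 24 hrs, then exposed to compounds diluted 1 in 20 in media, with DMSO controls, for 24 hrs. Cells were scraped, pelleted, PBS washed and lysed in RIPA buffer cocktail; after BCA protein quantitation, n-myc was detected by chemiluminescence on JESS/Western blot with tubulin and GAPDH loading controls read in the near infra red channel.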

T1 sequence (P01106 whole entry): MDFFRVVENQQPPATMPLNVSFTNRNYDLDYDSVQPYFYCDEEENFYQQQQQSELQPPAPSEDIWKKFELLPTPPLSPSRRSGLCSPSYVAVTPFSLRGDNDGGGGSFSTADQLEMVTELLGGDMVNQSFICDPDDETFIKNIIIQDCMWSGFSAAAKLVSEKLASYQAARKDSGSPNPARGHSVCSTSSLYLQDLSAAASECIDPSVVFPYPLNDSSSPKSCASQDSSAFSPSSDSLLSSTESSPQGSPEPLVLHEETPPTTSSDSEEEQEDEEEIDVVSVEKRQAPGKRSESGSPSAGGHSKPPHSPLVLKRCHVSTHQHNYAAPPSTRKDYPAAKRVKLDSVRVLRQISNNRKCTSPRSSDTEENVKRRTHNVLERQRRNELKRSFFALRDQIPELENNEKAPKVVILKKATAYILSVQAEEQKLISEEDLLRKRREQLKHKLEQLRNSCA

Take `CNCC12CC(C1)N(c1nccc(Nc3cc(C4CCC4)[nH]n3)n1)C2` [Compound 81, N-(5-Cyclobutyl-1H-pyrazol-3-yl)-2-[4-(methylaminomethyl)-2-azabicyclo[2.1.1]hexan-2-yl]pyrimidin-4-amine]: on MycC, the Dmax at 0.5 µM lay within 20 to 49%, the Dmax at 1 µM was 20 to 49%, the Dmax at 3 µM was in the range of 80 to 100% and the Dmax at 6 µM was 80 to 100%. On MycN, the Dmax at 0.5 µM is 20 to 49%, the Dmax at 1 µM fell in the range of 50 to 79%, the Dmax at 3 µM was 80 to 100% and the Dmax at 6 µM was 80 to 100%.

Turning to `CN1CC2(C1)CN(c1nccc(Nc3cc(C4CCCC4)[nH]n3)n1)C2` [Compound 84, N-(5-cyclopentyl-1H-pyrazol-3-yl)-2-(6-methyl-2,6-diazaspiro[3.3]heptan-2-yl)pyrimidin-4-amine], at MycC, the Dmax at 0.5 µM is 20 to 49%, the Dmax at 1 µM lay within 20 to 49%, the Dmax at 3 µM is below 20% and the Dmax at 6 µM lay within 20 to 49%. The Dmax at 6 µM on MycN lay in the range of 20 to 49%.

Turning to `CN1CC2(CCN(c3nccc(Nc4cc(C5CCCC5)[nH]n4)n3)C2)C1` [Compound 85, N-(5-cyclopentyl-1H-pyrazol-3-yl)-2-(2-methyl-2,6-diazaspiro[3.4]octan-6-yl)pyrimidin-4-amine], on MycC, the Dmax at 0.5 µM is below 20% and the Dmax at 6 µM was below 20%. In addition, at MycN, the Dmax at 0.5 µM was below 20%, the Dmax at 1 µM was below 20%, the Dmax at 3 µM is 20 to 49% and the Dmax at 6 µM was 50 to 79%.

Consider `CN1CC2(CCN(c3nccc(Nc4cc(C5CCCC5)[nH]n4)n3)CC2)C1` [Compound 86], for which, at MycC, the Dmax at 3 µM is 80 to 100% and the Dmax at 6 µM was in the range of 80 to 100%. Also, at MycN, the Dmax at 0.5 µM was 20 to 49%, the Dmax at 1 µM lay in the range of 20 to 49%, the Dmax at 3 µM was 80 to 100% and the Dmax at 6 µM was in the range of 80 to 100%.

For `CNCCCN(C)c1nccc(Nc2cc(C3CC3)[nH]n2)n1` [Compound 101, N^4-(5-Cyclopropyl-1H-pyrazol-3-yl)-N^2-methyl-N^2-[3-(methylamino)propyl]pyrimidine-2,4-diamine], at MycC, the Dmax at 0.5 µM was in the range of 20 to 49%, the Dmax at 1 µM was 20 to 49%, the Dmax at 3 µM fell in the range of 20 to 49% and the Dmax at 6 µM lay in the range of 20 to 49%. Further, on MycN, the Dmax at 0.5 µM was below 20%, the Dmax at 1 µM was below 20%, the Dmax at 3 µM was below 20% and the Dmax at 6 µM was 20 to 49%.

For `CC(F)(F)CNCC12CC(C1)N(c1nccc(Nc3cc(C4CCCC4)[nH]n3)n1)C2` [Compound 103, N-(5-Cyclopentyl-1H-pyrazol-3-yl)-2-[4-[(2,2-difluoropropylamino)methyl]-2-azabicyclo[2.1.1]hexan-2-yl]pyrimidin-4-amine], on MycC, the Dmax at 0.5 µM is below 20%, the Dmax at 1 µM is below 20% and the Dmax at 6 µM lay in the range of 80 to 100%. In addition, on MycN, the Dmax at 0.5 µM was below 20%, the Dmax at 1 µM lay within 20 to 49%, the Dmax at 3 µM was 80 to 100% and the Dmax at 6 µM is 80 to 100%.

As to `CN1CCCC2(C1)CN(c1nccc(Nc3cc(C4CC4)[nH]n3)n1)C2` [Compound 104, N-(5-cyclopropyl-1H-pyrazol-3-yl)-2-(8-methyl-2,8-diazaspiro[3.5]nonan-2-yl)pyrimidin-4-amine], on MycC, the Dmax at 1 µM is below 20% and the Dmax at 6 µM was in the range of 20 to 49%. Further, on MycN, the Dmax at 1 µM is below 20%, the Dmax at 3 µM lay within 20 to 49% and the Dmax at 6 µM was in the range of 20 to 49%.

Take `c1cc(Nc2cc(C3CC3)[nH]n2)nc(N2CC3(CCCNC3)C2)n1` [Compound 105, N-(5-Cyclopropyl-1H-pyrazol-3-yl)-2-(2,8-diazaspiro[3.5]nonan-2-yl)pyrimidin-4-amine]: on MycC, the Dmax at 3 µM was below 20% and the Dmax at 6 µM fell in the range of 80 to 100%. Further, at MycN, the Dmax at 0.5 µM was below 20%, the Dmax at 1 µM was below 20%, the Dmax at 3 µM was below 20% and the Dmax at 6 µM lay in the range of 80 to 100%.

`c1cc(Nc2cc(C3CCCC3)[nH]n2)nc(N2CC3(CCCNC3)C2)n1` [Compound 106, N-(5-Cyclopentyl-1H-pyrazol-3-yl)-2-(2,8-diazaspiro[3.5]nonan-2-yl)pyrimidin-4-amine]: on MycC, the Dmax at 0.5 µM is below 20%, the Dmax at 1 µM was below 20%, the Dmax at 3 µM is below 20% and the Dmax at 6 µM was below 20%. In addition, on MycN, the Dmax at 0.5 µM is below 20%, the Dmax at 1 µM is below 20%, the Dmax at 3 µM fell in the range of 20 to 49% and the Dmax at 6 µM fell in the range of 20 to 49%.

As for `CN1CC2(CCCN(c3nccc(Nc4cc(C5CCCC5)[nH]n4)n3)C2)C1` [Compound 107, N-(5-cyclopentyl-1H-pyrazol-3-yl)-2-(2-methyl-2,6-diazaspiro[3.5]nonan-6-yl)pyrimidin-4-amine], at MycC, the Dmax at 3 µM was below 20% and the Dmax at 6 µM was below 20%. On MycN, the Dmax at 0.5 µM is below 20%, the Dmax at 1 µM lay within 20 to 49%, the Dmax at 3 µM fell in the range of 20 to 49% and the Dmax at 6 µM lay within 20 to 49%.

For the molecule `NC[C@H]1CCCN(c2nccc(Nc3cc(C4CCCC4)[nH]n3)n2)C1` [Compound 108, 2-[(3R)-3-(Aminomethyl)-1-piperidyl]-N-(5-cyclopentyl-1H-pyrazol-3-yl)pyrimidin-4-amine], at MycC, the Dmax at 3 µM was 80 to 100% and the Dmax at 6 µM was in the range of 80 to 100%. For the same molecule, at MycN, the Dmax at 0.5 µM is below 20%, the Dmax at 1 µM was in the range of 50 to 79%, the Dmax at 3 µM lay in the range of 50 to 79% and the Dmax at 6 µM lay in the range of 80 to 100%.

For the molecule `NC[C@@H]1CCCN(c2nccc(Nc3cc(C4CCCC4)[nH]n3)n2)C1` [Compound 109, 2-[(3S)-3-(Aminomethyl)-1-piperidyl]-N-(5-cyclopentyl-1H-pyrazol-3-yl)pyrimidin-4-amine], on MycC, the Dmax at 0.5 µM was below 20%, the Dmax at 1 µM was below 20%, the Dmax at 3 µM lay within 80 to 100% and the Dmax at 6 µM lay within 80 to 100%. Besides, at MycN, the Dmax at 0.5 µM was 20 to 49%, the Dmax at 1 µM fell in the range of 50 to 79%, the Dmax at 3 µM was in the range of 50 to 79% and the Dmax at 6 µM lay within 80 to 100%.

`NC[C@@H]1CCN(c2nccc(Nc3cc(C4CCCC4)[nH]n3)n2)C1` [Compound 110, 2-[(3S)-3-(Aminomethyl)pyrrolidin-1-yl]-N-(5-cyclopentyl-1H-pyrazol-3-yl)pyrimidin-4-amine]: at MycC, the Dmax at 0.5 µM was below 20%, the Dmax at 3 µM is 80 to 100% and the Dmax at 6 µM lay in the range of 80 to 100%. At MycN, the Dmax at 0.5 µM lay within 20 to 49%, the Dmax at 1 µM lay in the range of 50 to 79%, the Dmax at 3 µM lay in the range of 50 to 79% and the Dmax at 6 µM lay within 80 to 100%.

Consider `CN(C)C[C@H]1CCN(c2nccc(Nc3cc(C4CCCC4)[nH]n3)n2)C1` [Compound 111, N-(5-Cyclopentyl-1H-pyrazol-3-yl)-2-[(3R)-3-[(dimethylamino)methyl]pyrrolidin-1-yl]pyrimidin-4-amine], for which, at MycC, the Dmax at 0.5 µM is below 20%, the Dmax at 1 µM is below 20%, the Dmax at 3 µM was below 20% and the Dmax at 6 µM was below 20%. In addition, on MycN, the Dmax at 0.5 µM is below 20%, the Dmax at 1 µM was below 20%, the Dmax at 3 µM was below 20% and the Dmax at 6 µM lay in the range of 50 to 79%.

Turning to `CNCC12CC(C1)N(c1nccc(Nc3cc(C4CCCC4)ncn3)n1)C2` [Compound 112, N-(6-Cyclopentylpyrimidin-4-yl)-2-[4-(methylaminomethyl)-2-azabicyclo[2.1.1]hexan-2-yl]pyrimidin-4-amine], the Dmax at 6 µM on MycC lay within 50 to 79%. Moreover, on MycN, the Dmax at 3 µM was 50 to 79% and the Dmax at 6 µM was in the range of 80 to 100%.

As to `NCC12CCC(C1)N(c1nccc(Nc3cc(C4CC4)[nH]n3)n1)C2` (stereo not drawn) [Compound 113, 2-[4-(Aminomethyl)-2-azabicyclo[2.2.1]heptan-2-yl]-N-(5-cyclopropyl-1H-pyrazol-3-yl)pyrimidin-4-amine], at MycC, the Dmax at 0.5 µM was in the range of 80 to 100%, the Dmax at 1 µM was 80 to 100%, the Dmax at 3 µM lay within 80 to 100% and the Dmax at 6 µM was 80 to 100%. For the same molecule, at MycN, the Dmax at 0.5 µM fell in the range of 80 to 100%, the Dmax at 1 µM is 80 to 100%, the Dmax at 3 µM lay in the range of 80 to 100% and the Dmax at 6 µM is 80 to 100%.

Source of the values: patent publication US20250170130A1, “MODULATORS OF MYC FAMILY PROTO-ONCOGENE PROTEIN” (Nalo Therapeutics, priority 2022, published 2025).
